The text below walks through data of ChEMBL document CHEMBL5346882 (Eur J Med Chem, 2023).

Usually IC50 stands for the point on the concentration scale where inhibition reaches its midpoint. One may read the Cmax as the highest concentration seen after dosing. For orientation: Tmax means the time from dosing to the highest level. For orientation: half-life means the time in which the quantity being followed falls by half. Low values mean rapid decline, high ones slow decline. The term AUC(0-t) denotes exposure summed from dosing to a finite time, without extrapolation to infinity. The MRT is the average time that molecules of a dose stay in the body.

Series [1] addresses Cholinesterase (Homo sapiens, UniProt P06276). In words: Inhibition of human recombinant BuChE using butyrylthiocholine iodide as substrate preincubated for 5 mins followed by substrate addition and measured every 2 mins by DTNB-reagent based Ellman's method. In general terms: DTNB colorimetry detects thiols as they appear.
For series [2], the target named is Beta-secretase 1 (Homo sapiens, UniProt P56817). In words: Inhibition of human recombinant BACE-1 expressed in baculovirus using swedish mutant of APP based Rh-EVNLDAEFK-quencher as substrate incubated for 60 mins by FRET assay.
For series [3], the target named is Sodium- and chloride-dependent GABA transporter 1 (Mus musculus, UniProt P31648). Kind of series: Inhibition of mouse GAT1 expressed in HEK293 cells assessed as reduction in [3H]-GABA uptake incubated for 10 mins. It counts as cell-based.
Series [4] addresses T1, GABA transporter 4 (Mus musculus, UniProt P31650).
T1 sequence (P31650 whole entry): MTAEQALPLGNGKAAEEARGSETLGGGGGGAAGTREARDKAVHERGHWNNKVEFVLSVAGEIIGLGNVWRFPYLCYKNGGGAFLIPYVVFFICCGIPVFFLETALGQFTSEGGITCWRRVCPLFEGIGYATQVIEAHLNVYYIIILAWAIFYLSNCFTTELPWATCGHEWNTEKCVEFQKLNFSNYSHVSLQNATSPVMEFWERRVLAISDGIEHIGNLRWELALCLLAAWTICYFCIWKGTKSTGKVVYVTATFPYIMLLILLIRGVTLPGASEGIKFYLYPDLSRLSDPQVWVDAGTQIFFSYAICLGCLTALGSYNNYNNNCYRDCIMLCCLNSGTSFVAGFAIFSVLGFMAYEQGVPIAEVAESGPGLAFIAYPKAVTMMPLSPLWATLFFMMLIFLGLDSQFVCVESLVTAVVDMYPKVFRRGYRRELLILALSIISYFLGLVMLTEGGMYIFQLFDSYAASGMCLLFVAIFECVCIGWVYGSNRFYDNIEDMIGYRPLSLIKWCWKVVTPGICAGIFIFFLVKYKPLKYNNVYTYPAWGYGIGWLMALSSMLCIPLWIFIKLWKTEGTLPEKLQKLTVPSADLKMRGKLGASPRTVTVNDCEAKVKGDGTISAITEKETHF
Kind of series: Inhibition of mouse GAT4 expressed in HEK293 cells assessed as reduction in [3H]-GABA uptake incubated for 10 mins. It counts as cell-based.

A short description of series [5]: Metabolic stability in human liver microsomes assessed as parent compound remaining incubated for 120 mins in presence of NADPH regeneration system by UPLC/MS analysis. The format is ADME, Microsome. The conditions noted are these: read-out: Stability. (In general: Liver microsomes are vesicles of endoplasmic reticulum, rich in cytochrome P450 enzymes.)
Series [6] in a line: Drug metabolism in human liver microsomes assessed as N-dealkylation mediated metabolite formation. It counts as ADME, Microsome.
For series [7], the target named is Cytochrome P450 3A4 (Homo sapiens, UniProt P08684). In words: Inhibition of CYP3A4 (unknown origin) at 10 uM. The format is ADME.
For series [8], the target named is Cytochrome P450 2D6 (Homo sapiens, UniProt P10635). In words: Inhibition of CYP2D6 (unknown origin) at 10 uM. It counts as ADME.
Series [9] is described as follows: Cmax in CD-1 mouse plasma at 10 mg/kg, ip administered as single dose and measured after 15 to 240 mins by LC-MS/MS analysis. Also noted: dose 10 mg/kg, time 15-240 min, route ip. The format is ADME, organism-based.
The nature of series [10]: Cmax in CD-1 mouse plasma at 30 mg/kg, ip administered as single dose and measured after 15 to 240 mins by LC-MS/MS analysis. The format is ADME, organism-based. Also noted: time upper 240 min, time lower 15 min, dose 30 mg/kg, route ip.
Series [11] is described as follows: Cmax in CD-1 mouse brain at 10 mg/kg, ip administered as single dose and measured after 15 to 240 mins by LC-MS/MS analysis. The format is ADME, organism-based. Also noted: time 15-240 min, dose 10 mg/kg, route ip.
Series [12] in a line: Cmax in CD-1 mouse brain at 30 mg/kg, ip administered as single dose and measured after 15 to 240 mins by LC-MS/MS analysis. The format is ADME, organism-based. Also noted: time upper 240 min, time lower 15 min, dose 30 mg/kg, route ip.
A short description of series [13]: Tmax in CD-1 mouse plasma at 10 mg/kg, ip administered as single dose and measured after 15 to 240 mins by LC-MS/MS analysis. The format is ADME, organism-based. The following applies: time 15-240 min.
Series [14] in a line: Tmax in CD-1 mouse plasma at 30 mg/kg, ip administered as single dose and measured after 15 to 240 mins by LC-MS/MS analysis. The format is ADME, organism-based. The conditions noted are these: time 15-240 min.
The nature of series [15]: Tmax in CD-1 mouse brain at 10 mg/kg, ip administered as single dose and measured after 15 to 240 mins by LC-MS/MS analysis. It counts as ADME, organism-based. The following applies: time 15-240 min.
The nature of series [16]: Tmax in CD-1 mouse brain at 30 mg/kg, ip administered as single dose and measured after 15 to 240 mins by LC-MS/MS analysis. The format is ADME, organism-based. The following applies: time 15-240 min.
Series [17] is described as follows: Half life in CD-1 mouse plasma at 30 mg/kg, ip administered as single dose and measured after 15 to 240 mins by LC-MS/MS analysis. It counts as ADME, organism-based. The conditions noted are these: time 15-240 min.
Series [18] can be described thus: AUC (0 to t) in CD-1 mouse plasma at 10 mg/kg, ip administered as single dose and measured after 15 to 240 mins by LC-MS/MS analysis. Also noted: time upper 240 min, dose 10 mg/kg, time lower 15 min, route ip. The format is ADME, organism-based.
The nature of series [19]: AUC (0 to t) in CD-1 mouse plasma at 30 mg/kg, ip administered as single dose and measured after 15 to 240 mins by LC-MS/MS analysis. Also noted: dose 30 mg/kg, time 15-240 min, route ip. The format is ADME, organism-based.
A short description of series [20]: AUC (0 to t) in CD-1 mouse brain at 10 mg/kg, ip administered as single dose and measured after 15 to 240 mins by LC-MS/MS analysis. It counts as ADME, organism-based. Also noted: time 15-240 min, dose 10 mg/kg, route ip.
Series [21] in a line: AUC (0 to t) in CD-1 mouse brain at 30 mg/kg, ip administered as single dose and measured after 15 to 240 mins by LC-MS/MS analysis. The format is ADME, organism-based. Also noted: time upper 240 min, dose 30 mg/kg, time lower 15 min, route ip.
The nature of series [22]: MRT in CD-1 mouse plasma at 10 mg/kg, ip administered as single dose and measured after 15 to 240 mins by LC-MS/MS analysis. The format is ADME, organism-based. The following applies: time 15-240 min.
Series [23] in a line: MRT in CD-1 mouse plasma at 30 mg/kg, ip administered as single dose and measured after 15 to 240 mins by LC-MS/MS analysis. The format is ADME, organism-based. The conditions noted are these: time 15-240 min.
Series [24] is described as follows: MRT in CD-1 mouse brain at 10 mg/kg, ip administered as single dose and measured after 15 to 240 mins by LC-MS/MS analysis. The format is ADME, organism-based. The conditions noted are these: time 15-240 min.
A short description of series [25]: MRT in CD-1 mouse brain at 30 mg/kg, ip administered as single dose and measured after 15 to 240 mins by LC-MS/MS analysis. It counts as ADME, organism-based. The conditions noted are these: time 15-240 min.
A short description of series [26]: Half life in CD-1 mouse plasma at 10 mg/kg, ip administered as single dose and measured after 15 to 240 mins by LC-MS/MS analysis. The format is ADME, organism-based. The conditions noted are these: time 15-240 min.
Series [27] in a line: Half life in CD-1 mouse brain at 10 mg/kg, ip administered as single dose and measured after 15 to 240 mins by LC-MS/MS analysis. The format is ADME, organism-based. The conditions noted are these: time 15-240 min.
The nature of series [28]: Half life in CD-1 mouse brain at 30 mg/kg, ip administered as single dose and measured after 15 to 240 mins by LC-MS/MS analysis. It counts as ADME, organism-based. The following applies: time 15-240 min.
A short description of series [29]: Apparent clearance in CD-1 mouse plasma at 10 mg/kg, ip administered as single dose and measured after 15 to 240 mins by LC-MS/MS analysis. The format is ADME, organism-based. The following applies: time 15-240 min, read-out: CL(app).
Series [30] is described as follows: Apparent clearance in CD-1 mouse plasma at 30 mg/kg, ip administered as single dose and measured after 15 to 240 mins by LC-MS/MS analysis. The format is ADME, organism-based. The conditions noted are these: time 15-240 min, read-out: CL(app).
Series [31] in a line: Apparent volume of distribution in CD-1 mouse plasma at 10 mg/kg, ip administered as single dose and measured after 15 to 240 mins by LC-MS/MS analysis. The format is ADME, organism-based. The conditions noted are these: in vivo, time 15-240 min.
Series [32] can be described thus: Apparent volume of distribution in CD-1 mouse plasma at 30 mg/kg, ip administered as single dose and measured after 15 to 240 mins by LC-MS/MS analysis. The following applies: in vivo, time 15-240 min. It counts as ADME, organism-based.
Series [33] concerns the target ATP-dependent translocase ABCB1 (Homo sapiens, UniProt P08183). Kind of series: Substrate activity at P-gp membranes (unknown origin) at 100 uM incubated for 40 mins by luminescent glo assay relative to control. The format is ADME, cell membranes, Membrane.
Series [34] is described as follows: Ratio of brain to plasma partition coefficient in CD-1 mouse at 10 mg/kg, ip administered as single dose and measured after 15 to 240 mins by LC-MS/MS analysis. The format is ADME, organism-based. The conditions noted are these: time 15-240 min, read-out: BPR.
A short description of series [35]: Ratio of brain to plasma partition coefficient in CD-1 mouse at 30 mg/kg, ip administered as single dose and measured after 15 to 240 mins by LC-MS/MS analysis. The following applies: time 15-240 min, read-out: BPR. The format is ADME, organism-based.
Series [36] can be described thus: cells. The following applies: Mus musculus, HEK293.
Description: Inhibition of mouse GAT2 expressed in HEK293 cells assessed as reduction in [3H]-GABA uptake incubated for 10 mins
Series [37] in a line: cells. The conditions noted are these: Mus musculus, HEK293. The source holds these as a separate data set.
Description: Inhibition of mouse GAT3 expressed in HEK293 cells assessed as reduction in [3H]-GABA uptake incubated for 10 mins

Sequence of Cytochrome P450 2D6 (P10635 whole entry): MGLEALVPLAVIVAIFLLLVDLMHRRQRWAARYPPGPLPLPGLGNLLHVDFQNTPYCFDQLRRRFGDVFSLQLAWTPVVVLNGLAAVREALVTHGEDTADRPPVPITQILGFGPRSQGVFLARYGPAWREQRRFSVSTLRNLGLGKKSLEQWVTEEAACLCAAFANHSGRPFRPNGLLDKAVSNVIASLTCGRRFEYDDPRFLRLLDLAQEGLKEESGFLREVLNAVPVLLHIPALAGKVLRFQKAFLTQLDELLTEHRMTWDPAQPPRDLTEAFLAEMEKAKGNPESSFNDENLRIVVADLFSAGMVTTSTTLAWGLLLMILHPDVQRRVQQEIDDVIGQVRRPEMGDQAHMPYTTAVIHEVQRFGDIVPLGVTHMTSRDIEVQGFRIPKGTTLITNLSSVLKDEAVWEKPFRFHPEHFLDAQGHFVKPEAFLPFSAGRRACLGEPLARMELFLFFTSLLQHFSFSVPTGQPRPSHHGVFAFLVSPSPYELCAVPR
Sequence of ATP-dependent translocase ABCB1 (P08183 whole entry): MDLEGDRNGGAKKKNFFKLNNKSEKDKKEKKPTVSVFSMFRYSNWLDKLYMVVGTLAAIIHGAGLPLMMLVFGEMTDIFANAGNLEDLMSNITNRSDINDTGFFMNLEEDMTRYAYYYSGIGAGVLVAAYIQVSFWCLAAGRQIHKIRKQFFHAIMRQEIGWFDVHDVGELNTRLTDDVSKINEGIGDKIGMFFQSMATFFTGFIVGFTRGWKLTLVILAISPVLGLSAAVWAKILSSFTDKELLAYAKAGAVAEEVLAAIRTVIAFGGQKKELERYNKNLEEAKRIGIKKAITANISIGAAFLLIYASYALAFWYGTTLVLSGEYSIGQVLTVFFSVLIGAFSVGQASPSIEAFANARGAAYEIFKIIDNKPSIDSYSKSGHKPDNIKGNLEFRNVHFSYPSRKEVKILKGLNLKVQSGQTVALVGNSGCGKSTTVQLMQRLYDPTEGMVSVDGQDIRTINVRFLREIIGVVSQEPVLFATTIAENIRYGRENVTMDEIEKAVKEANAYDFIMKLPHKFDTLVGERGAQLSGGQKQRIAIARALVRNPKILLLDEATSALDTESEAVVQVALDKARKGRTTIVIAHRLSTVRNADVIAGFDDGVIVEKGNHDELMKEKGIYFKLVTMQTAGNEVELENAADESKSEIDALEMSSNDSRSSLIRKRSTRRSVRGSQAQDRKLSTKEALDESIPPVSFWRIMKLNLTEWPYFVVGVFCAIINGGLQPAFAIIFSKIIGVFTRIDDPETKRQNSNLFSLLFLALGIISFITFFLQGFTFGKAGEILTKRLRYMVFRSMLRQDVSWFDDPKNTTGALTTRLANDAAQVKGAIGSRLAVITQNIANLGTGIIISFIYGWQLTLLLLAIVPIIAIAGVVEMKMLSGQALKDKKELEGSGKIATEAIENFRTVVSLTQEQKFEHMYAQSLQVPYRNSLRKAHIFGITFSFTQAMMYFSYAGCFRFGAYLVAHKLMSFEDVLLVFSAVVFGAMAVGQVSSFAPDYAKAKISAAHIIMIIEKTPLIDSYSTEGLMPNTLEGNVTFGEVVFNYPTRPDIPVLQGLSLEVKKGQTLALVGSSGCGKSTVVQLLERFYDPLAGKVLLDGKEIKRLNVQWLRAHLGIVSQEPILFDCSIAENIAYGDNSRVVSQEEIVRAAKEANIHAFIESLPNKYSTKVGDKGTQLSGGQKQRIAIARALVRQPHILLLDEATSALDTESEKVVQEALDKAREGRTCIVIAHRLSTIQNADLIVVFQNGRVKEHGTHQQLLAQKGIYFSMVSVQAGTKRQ
Sequence of Cholinesterase (P06276 whole entry): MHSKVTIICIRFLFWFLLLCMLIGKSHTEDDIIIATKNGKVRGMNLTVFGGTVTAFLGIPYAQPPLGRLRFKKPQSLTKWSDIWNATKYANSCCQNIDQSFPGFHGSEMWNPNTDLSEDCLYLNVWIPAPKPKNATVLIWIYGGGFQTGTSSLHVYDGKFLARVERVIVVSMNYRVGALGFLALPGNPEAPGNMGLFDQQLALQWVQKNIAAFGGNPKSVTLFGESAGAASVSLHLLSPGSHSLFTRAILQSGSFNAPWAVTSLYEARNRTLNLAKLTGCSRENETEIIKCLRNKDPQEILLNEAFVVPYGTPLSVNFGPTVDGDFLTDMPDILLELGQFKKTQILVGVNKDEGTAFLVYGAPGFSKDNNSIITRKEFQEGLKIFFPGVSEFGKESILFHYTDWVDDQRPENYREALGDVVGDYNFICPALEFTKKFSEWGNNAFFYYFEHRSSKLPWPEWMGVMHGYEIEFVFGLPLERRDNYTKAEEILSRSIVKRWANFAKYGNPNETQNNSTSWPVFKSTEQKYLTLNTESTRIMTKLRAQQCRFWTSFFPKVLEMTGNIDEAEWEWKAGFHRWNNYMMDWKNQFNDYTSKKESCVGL
Sequence of Beta-secretase 1 (P56817 whole entry): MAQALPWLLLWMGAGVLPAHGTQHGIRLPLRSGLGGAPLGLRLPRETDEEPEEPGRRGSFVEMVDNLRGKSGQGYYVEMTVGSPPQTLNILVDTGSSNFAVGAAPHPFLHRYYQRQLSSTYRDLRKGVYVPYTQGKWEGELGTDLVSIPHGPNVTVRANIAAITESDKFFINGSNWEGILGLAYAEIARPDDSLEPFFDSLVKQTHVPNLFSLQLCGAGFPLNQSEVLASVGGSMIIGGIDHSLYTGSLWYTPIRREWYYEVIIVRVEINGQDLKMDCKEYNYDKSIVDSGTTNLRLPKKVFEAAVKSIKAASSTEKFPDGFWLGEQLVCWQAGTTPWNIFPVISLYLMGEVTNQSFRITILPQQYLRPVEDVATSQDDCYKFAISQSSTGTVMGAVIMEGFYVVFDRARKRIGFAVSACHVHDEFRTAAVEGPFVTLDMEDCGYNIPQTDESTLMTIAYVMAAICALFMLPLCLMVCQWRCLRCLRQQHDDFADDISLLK
Sequence of Cytochrome P450 3A4 (P08684 whole entry): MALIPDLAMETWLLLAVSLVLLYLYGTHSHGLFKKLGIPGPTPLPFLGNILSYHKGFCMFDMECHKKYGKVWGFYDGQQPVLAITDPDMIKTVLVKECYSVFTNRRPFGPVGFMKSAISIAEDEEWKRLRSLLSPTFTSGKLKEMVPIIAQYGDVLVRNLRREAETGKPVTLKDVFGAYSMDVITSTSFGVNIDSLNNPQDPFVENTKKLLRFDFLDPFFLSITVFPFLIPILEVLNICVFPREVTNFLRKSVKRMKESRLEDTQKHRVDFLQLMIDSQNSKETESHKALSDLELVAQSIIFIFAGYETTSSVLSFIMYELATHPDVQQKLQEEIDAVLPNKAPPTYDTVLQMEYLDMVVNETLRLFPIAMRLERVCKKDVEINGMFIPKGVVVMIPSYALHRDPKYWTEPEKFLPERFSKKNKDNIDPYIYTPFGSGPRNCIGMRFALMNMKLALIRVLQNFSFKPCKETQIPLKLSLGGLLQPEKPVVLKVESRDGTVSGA

With `CC(C)(C)c1cccc(CNCC(O)CNCCC(c2ccccc2)c2ccccc2)c1` (configuration not stated), the IC50 worked out at 6 µM in series [1] and 41 µM in series [2].

On to `O=C(CC(c1ccccc1)c1ccccc1)NCC(O)CNCC1CCCCC1` (configuration not stated), for which the IC50 in series [3], in series [4], in series [36] and in series [37] was more than 10 µM each time. Moreover, the remaining at 2 h in series [5] was more than 80%. Besides, in [6], the Drug metabolism entry is “Metabolite_Detected”. The “inhibition (INH)” value in series [7] and in [8] was “Active” throughout. Besides, the Cmax in [9] is 192 ng/mL; in [10], 312 ng/mL; in [11], 27.4 ng/mL; in [12] it was 44.3 ng/mL. In addition, the Tmax in series [13], in [14], in series [15] and in [16] was 0.25 h throughout. The half-life in [17] amounted to 0.912 h; in series [26], 1.6 h; in series [27] it was 5.84 h; in [28], 4.24 h. The AUC(0-t) was 247 ng·h/mL in series [18], 441 ng·h/mL in [19], 85.1 ng·h/mL in [20] and 122 ng·h/mL in [21]. Also, the MRT was 1.24 h in series [22], 1.03 h in series [23], 1.88 h in series [24] and 1.8 h in series [25]. For the same molecule, the CL/F in [29] worked out at 577 mL/min/kg; in series [30] it was 1070 mL/min/kg. In addition, the Vz in [31] amounted to 80 L/kg; in series [32] it was 84.4 L/kg. The Activity result in series [33] is “<= 190%”. For the same molecule, the results for the Kp in [34] and in series [35] were 0.34 and 0.28, respectively.
